Paper PMC10861593, “Kisspeptin-10 binding to Gpr54 in osteoclasts prevents bone loss by activating Dusp18-mediated dephosphorylation of Src” (Nature Communications, 2024)
Each block holds one molecule with its values, some of them ahead of it. Where a SMILES comes first, the peptide text is derived from it.

What was measured:
[1] = system: GPR54 / Src interaction; assay: Co-IP: interaction of GPR54 with Src in transfected 293T cells; assay type: cell-based, human; settings: inhibitor 1 h (U73122 10 µM, Staurosporine 0.25 µM, LY3214996 10 µM, KN-93 10 µM, Saracatinib 10 µM), then 10 nM Kp-10 20 min
Method: Data represent means ± SEM. P values were determined by one-way ANOVA analysis (b, c, e, g, i, k). Representative results were obtained from at least three independent experiments. Source data are provided as a Source Data file.
Whole-cell proteins were extracted using 1x RIPA buffer (25 mM Tris, pH7.5, 150 mM NaCl, 0.5% Sodium deoxycholate, 1% Triton-X-100) supplemented with protease inhibitors (Complete Mini, Roche) and phosphatase inhibitors (phosphatase inhibitor cocktail set I and II, Calbiochem). Immunoprecipitation and immunoblotting with indicated antibodies were performed as described in Supplementary Table 1. Image Jsoftware (V1.52) was used for quantification analysis. Uncropped and unprocessed blots are presented in the Supplementary Information file.
Error bars are ± SEM. […] Source data are provided as a Source Data file.

[2] = system: Dusp18 knockout mice; assay: bone and osteoclast parameters in Dusp18 knockout mice; assay type: in vivo, mouse; settings: TRAP staining and osteoclast parameters, femur
Source text: Data represent means ± SEM. […] Representative results were obtained from at least three independent experiments. Source data are provided as a Source Data file.

[3] = molecular target: T1, DUSP18 (Homo sapiens, UniProt Q8NEJ0); assay: SPR (Biacore T200) binding to DUSP18
T1 construct: For purification of full-length WT human DUSP18 and DUSP18 (C104S) proteins; His (N); made in house; host or cells: E. coli
T1 sequence (Q8NEJ0 1-188): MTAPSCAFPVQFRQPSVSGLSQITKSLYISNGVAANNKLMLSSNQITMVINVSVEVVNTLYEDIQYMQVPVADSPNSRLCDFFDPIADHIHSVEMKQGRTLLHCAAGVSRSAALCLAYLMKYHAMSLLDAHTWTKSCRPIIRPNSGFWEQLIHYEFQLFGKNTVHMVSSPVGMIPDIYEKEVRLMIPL
Method: SPR was determined using a Biacore T200 instrument (GE). SRC or DUSP18 protein was immobilized on the sensor chip (CM5) using the amine-coupling method according to standard protocols. Immobilization was performed according to the manufacturer’s recommendations. SRC protein (64 ug/mL, pH5.0) or DUSP18 protein (25 ug/mL, pH7.4) was diluted in 10 mM acetate buffer or 10 mM PBS buffer. Sh2-sh3 (100 ug/mL, pH5.0) was diluted in 10 mM acetate buffer. The kinetics and affinity assay were examined at 25 °C at a flow rate of 30 µl/minute using PBS buffer with 0.05% Tween-20. The KD values were calculated with the kinetics analysis (1:1 model) of Biacore T200 evaluation software. The interaction of GPR54 CT, peptides of PR motifs with Src or DUSP18, and the interaction of DUSP18 and Src were analyzed respectively by regeneration with pH 2.0 Gly-HCl buffer.
The C terminus of human GPR54 (H329- L398) and mouse Gpr54 (R331- L396) cDNAs were subcloned into a pGEX-4T2 vector. For purification of full-length WT human DUSP18 and DUSP18 (C104S) proteins, DUSP18 was cloned into pMCSG7 vector. […]

[4] = molecular target: T2, His-SRC protein, Src (G85-L536) (human, UniProt P12931 85-536); assay: SPR; Biacore T200, SRC protein immobilised on CM5 by amine coupling (64 ug/mL, pH 5.0, acetate); 25 °C, 30 µl/minute, PBS with 0.05% Tween-20; kinetics analysis, 1:1 model; settings: both partners purified
T2 construct: human Src, G85-L536, in pFastBac HT B; In the SPR it is called 'SRC protein'; removal of the tag is not mentioned; source: Sf9 (Bac-to-Bac baculovirus), purified; not shown: His6, N-terminal, kept

Molecule: COc1ccc2c(c1)CC[C@@H]1[C@@H]2CC[C@]2(C)[C@@H](NCCCCCCN3C(=O)C=CC3=O)CC[C@@H]12 [U73122]
effect on Kp-10 induced interaction of GPR54 with Src [1]: not by the inhibitors

Molecule: COc1ccc(S(=O)(=O)N(CCO)c2ccccc2CN(C)C/C=C/c2ccc(Cl)cc2)cc1 [KN-93]
effect on Kp-10 induced interaction of GPR54 with Src [1]: not by the inhibitors

Molecule: O=C(Cc1ccc(-c2ccc(OCCN3CCOCC3)cc2)cn1)NCc1ccccc1 [KX2-391]
rescue of Dusp18 deletion induced osteoclast activity [2]: efficiently rescued

SPR curve when titrated with Dusp18 ([3]; synthesized mouse Gpr54 peptide): generated an unfitted SPR curve
Molecule: Gpr54^339–344: right-shifted mouse Gpr54 peptide which corresponds to the PxxRxR motif (PCCRQR)

kon ([3]; printed in the picture of the figure, read-out: ka): 1130 ± 9500 M⁻¹ s⁻¹
Molecule: CC(C)[C@H](NC(=O)[C@@H](N)CCCNC(=N)N)C(=O)N[C@@H](CS)C(=O)N1CCC[C@H]1C(=O)N[C@@H](CS)C(=O)N[C@@H](CS)C(=O)N[C@@H](CCCNC(=N)N)C(=O)O [Gpr54^336–342] (H-RVCPCCR-OH; N-terminus and C-terminus assumed)

Kd [4]: 4.24 µM
B1: peptide of GPR54^336–356 (peptide, UniProt Q969F8 336-356, looked up)
peptide: RVCPCAPRRPRRPRRPGPSDP
notes: human GPR54 (KiSS1R), residues 336-356 of the PR motif; source: synthetic peptide (GL Biochem)

Kd [4]: 28.3 µM
B2: GPR54^333–344 (N-terminal half of the PR motif) (peptide, UniProt Q969F8 333-344, looked up)
peptide: AFRRVCPCAPRR
notes: source: synthetic peptide (GL Biochem)
